Reference: patent publication US20250179049A1, “SALTS OF HETEROCYCLIC INHIBITORS OF MONOCARBOXYLATE TRANSPORTER 4 FOR THE TREATMENT OF DISEASE” (Vettore, LLC, priority 2022, published 2025)
Where two headings read alike, the source gives them in different places.

Assays:
[1] = Rat pharmacokinetics, oral gavage; assay type: in vivo, Sprague-Dawley rats; set-up: AUClast/D: unit not given here; conditions: for MRT inf: read-out: MRTInf—obs; for Tmax: read-out: Tmax
Procedure: Groups, Dosing, and Collection. […] Three rats per group were perorally administered 20, 60, or 200 mg Compound 1 free acid or 25, 75, or 250 mg in 0.5% methylcellulose in Saline for a final concentration of 2, 6, or 20 mg/mL Compound 1 free acid or 2.5, 7.5, or […]. Plasma was collected at 5 min, 15 min, 30 min, 1 hour, 2 hour, 4 hour, 6 hour, 8 hour, and 24 hour post dose via jugular vein.
Stock and Dose Prep. Stock solutions were prepared by dissolving 2.47 mg of Compound 1 (free acid) in 2.470 mL DMSO with vortexing to obtain 1 mg/mL solution of Compound 1 (free acid), or 2.09 mg of Compound 1 (Tris salt) in […] DMSO with vortexing to obtain 1 mg/mL solution of Compound 1 (Tris salt). Dosing solutions were prepared by vortexing/sonicating the following solids in solvent:
LC MS-MS Analysis. Liquid Chromatography with tandem mass spectrometry was used to determine plasma concentrations of Compound 1 Free Acid and Compound 1 Tris Salt in plasma samples collected at prescribed time points.
Appropriate serial concentrations of working solutions were achieved by diluting stock solution of analyte with 50% acetonitrile in water solution. Five μL of working solutions (10, 20, 50, 100, 500, 1000, 5000, 8000, 10000 ng/mL) were added to 50 μL of the blank male SD Rat plasma to achieve calibration standards of 1˜1000 ng/ml (1, 2, 5, 10, 50, 100, 500, 800, 1000 ng/mL) in a total volume of 55 μL. Five quality control (QC) samples at 2 ng/mL, 5 ng/mL, 10 ng/mL, 50 ng/mL and 800 ng/mL for plasma were prepared independently of those used for the calibration curves. These QC samples were prepared on the day of analysis in the same way as calibration standards. 55 μL standards, 55 μL QC samples and 55 μL unknown samples (50 μL plasma/blood with 5 μL blank solution) were added to 200 μL of methanol containing internal standard (dexamethasone) mixture for precipitating protein respectively, and vortexed for 30 seconds. After centrifugation at 4° C. and 4000 rpm for 15 minutes. The supernatant was diluted with water with a ratio of 1:2. 2 μL of the supernatant was injected into the LC/MS/MS system for quantitative analysis.
Instrumentation included HALO 90A C18 2.7 μm 2.1×50 mm HPLC column, a Prominence degasser DGU-20A5R(C), liquid chromatograph Shimadzu LC-30AD with communications bus module CBM-20A and Auto SIL-20AC HT; and an AB Sciex Triple Quad 5500 LC/MS/MS instrument.

[2] = ADME: intravenous clearance and oral bioavailability; assay type: in vivo
Excerpt: The absorption, distribution, metabolism, and excretion properties of Compound 1 have been characterized in both in vitro and in vivo studies. Sensitive and selective bioanalytical methods have been developed and validated for rat and dog plasma. Following intravenous administration, the systemic clearance of Compound 1 in all species evaluated was considered low. Following oral administration, bioavailability was generally greater than 30% in the species evaluated. Initial studies utilized the Compound 1 free form. […] All Good Laboratory Practice (GLP) studies were performed using the Compound 1 tris salt form. Dose levels indicate Compound 1 free form equivalents unless otherwise noted.

[3] = Sprague-Dawley, plasma, rat PO 20 mg/kg, female, mean
[4] = Sprague-Dawley, plasma, rat PO 20 mg/kg, male, mean
[5] = Sprague-Dawley, plasma, rat PO 60 mg/kg, female, mean
[6] = Sprague-Dawley, plasma, rat PO 60 mg/kg, male, mean
[7] = Sprague-Dawley, plasma, rat PO 200 mg/kg, female, mean
[8] = Sprague-Dawley, plasma, rat PO 200 mg/kg, male, mean

CC(C)(OCc1cc(-c2cccc(OC3CCC3)c2)n(-c2ccccc2N2CCC2)n1)C(=O)O [Compound 1, 2-((1-(2-(azetidin-1-yl)phenyl)-5-(3-cyclobutoxyphenyl)-1H-pyrazol-3-yl)methoxy)-2-methylpropanoic acid]
AUC(0-inf) [1, 3]: 991 µg·h/mL | half-life [1, 3]: 7 h | MRT inf [1, 3]: 10 h | AUC(0-inf) [1, 4]: 168 µg·h/mL | half-life [1, 4]: 3.27 h | MRT inf [1, 4]: 4.54 h | AUC(0-inf) [1, 5]: 1770 µg·h/mL | half-life [1, 5]: 9.1 h | MRT inf [1, 5]: 13.6 h | AUC(0-inf) [1, 6]: 447 µg·h/mL | half-life [1, 6]: 2.92 h | MRT inf [1, 6]: 5.33 h | AUC(0-inf) [1, 7]: 3820 µg·h/mL | half-life [1, 7]: 10.4 h | MRT inf [1, 7]: 15.9 h | AUC(0-inf) [1, 8]: 1110 µg·h/mL | half-life [1, 8]: 3.14 h | MRT inf [1, 8]: 6.01 h | AUC(0-t) ([1]; female, Sprague-Dawley, rat, plasma, po, 20 mg/kg, rat PO 20 mg/kg, female, mean, read-out: AUClast): 885 µg·h/mL | Cmax ([1]; female, Sprague-Dawley, rat, plasma, po, 20 mg/kg, rat PO 20 mg/kg, female, mean, read-out: Cmax): 78.9 µg/mL | Tmax ([1]; female, Sprague-Dawley, rat, plasma, po, 20 mg/kg, rat PO 20 mg/kg, female, mean): 2.67 h | AUC(0-t) ([1]; female, Sprague-Dawley, rat, plasma, po, 20 mg/kg, rat, Female, PO/20 mg/kg, Mean ± SD, read-out: AUC0-24): 885 µg·h/mL | Cmax ([1]; female, Sprague-Dawley, rat, plasma, po, 20 mg/kg, rat, Female, PO/20 mg/kg, Mean ± SD, read-out: Cmax): 78.8 µg/mL | AUC(0-t) ([1]; female, Sprague-Dawley, rat, plasma, po, 60 mg/kg, rat PO 60 mg/kg, female, mean, read-out: AUClast): 1430 µg·h/mL | Cmax ([1]; female, Sprague-Dawley, rat, plasma, po, 60 mg/kg, rat PO 60 mg/kg, female, mean, read-out: Cmax): 113 µg/mL | Tmax ([1]; female, Sprague-Dawley, rat, plasma, po, 60 mg/kg, rat PO 60 mg/kg, female, mean): 4.67 h | AUC(0-t) ([1]; female, Sprague-Dawley, rat, plasma, po, 60 mg/kg, rat, Female, PO/60 mg/kg, Mean ± SD, read-out: AUC0-24): 1430 µg·h/mL | Cmax ([1]; female, Sprague-Dawley, rat, plasma, po, 60 mg/kg, rat, Female, PO/60 mg/kg, Mean ± SD, read-out: Cmax): 113 µg/mL | Tmax ([1]; female, Sprague-Dawley, rat, plasma, po, 60 mg/kg, rat, Female, PO/60 mg/kg, Mean ± SD): 4.7 ± 2.3 h | AUC(0-t) ([1]; female, Sprague-Dawley, rat, plasma, po, 200 mg/kg, rat PO 200 mg/kg, female, mean, read-out: AUClast): 2850 µg·h/mL | Cmax ([1]; female, Sprague-Dawley, rat, plasma, po, 200 mg/kg, rat PO 200 mg/kg, female, mean, read-out: Cmax): 206 µg/mL | Tmax ([1]; female, Sprague-Dawley, rat, plasma, po, 200 mg/kg, rat PO 200 mg/kg, female, mean): 4.67 h | AUC(0-t) ([1]; female, Sprague-Dawley, rat, plasma, po, 200 mg/kg, rat, Female, PO/200 mg/kg, Mean ± SD, read-out: AUC0-24): 2850 µg·h/mL | Cmax ([1]; female, Sprague-Dawley, rat, plasma, po, 200 mg/kg, rat, Female, PO/200 mg/kg, Mean ± SD, read-out: Cmax): 206 µg/mL | Tmax ([1]; female, Sprague-Dawley, rat, plasma, po, 200 mg/kg, rat, Female, PO/200 mg/kg, Mean ± SD): 4.7 ± 1.1 h | AUC(0-t) ([1]; male, Sprague-Dawley, rat, plasma, po, 20 mg/kg, rat PO 20 mg/kg, male, mean, read-out: AUClast): 167 µg·h/mL | Cmax ([1]; male, Sprague-Dawley, rat, plasma, po, 20 mg/kg, rat PO 20 mg/kg, male, mean, read-out: Cmax): 30.6 µg/mL | Tmax ([1]; male, Sprague-Dawley, rat, plasma, po, 20 mg/kg, rat PO 20 mg/kg, male, mean): 1 h | AUC(0-t) ([1]; male, Sprague-Dawley, rat, plasma, po, 20 mg/kg, rat, Male, PO/20 mg/kg, Mean ± SD, read-out: AUC0-24): 167 µg·h/mL | Cmax ([1]; male, Sprague-Dawley, rat, plasma, po, 20 mg/kg, rat, Male, PO/20 mg/kg, Mean ± SD, read-out: Cmax): 30.6 µg/mL | Tmax ([1]; male, Sprague-Dawley, rat, plasma, po, 20 mg/kg, rat, Male, PO/20 mg/kg, Mean ± SD): 1 h | AUC(0-t) ([1]; male, Sprague-Dawley, rat, plasma, po, 60 mg/kg, rat PO 60 mg/kg, male, mean, read-out: AUClast): 445 µg·h/mL | Cmax ([1]; male, Sprague-Dawley, rat, plasma, po, 60 mg/kg, rat PO 60 mg/kg, male, mean, read-out: Cmax): 56.5 µg/mL | Tmax ([1]; male, Sprague-Dawley, rat, plasma, po, 60 mg/kg, rat PO 60 mg/kg, male, mean): 2.67 h | AUC(0-t) ([1]; male, Sprague-Dawley, rat, plasma, po, 60 mg/kg, rat, Male, PO/60 mg/kg, Mean ± SD, read-out: AUC0-24): 445 µg·h/mL | Cmax ([1]; male, Sprague-Dawley, rat, plasma, po, 60 mg/kg, rat, Male, PO/60 mg/kg, Mean ± SD, read-out: Cmax): 56.5 µg/mL | Tmax ([1]; male, Sprague-Dawley, rat, plasma, po, 60 mg/kg, rat, Male, PO/60 mg/kg, Mean ± SD): 2.7 ± 1.2 h | AUC(0-t) ([1]; male, Sprague-Dawley, rat, plasma, po, 200 mg/kg, rat PO 200 mg/kg, male, mean, read-out: AUClast): 1100 µg·h/mL | Cmax ([1]; male, Sprague-Dawley, rat, plasma, po, 200 mg/kg, rat PO 200 mg/kg, male, mean, read-out: Cmax): 115 µg/mL | Tmax ([1]; male, Sprague-Dawley, rat, plasma, po, 200 mg/kg, rat PO 200 mg/kg, male, mean): 4 h | AUC(0-t) ([1]; male, Sprague-Dawley, rat, plasma, po, 200 mg/kg, rat, Male, PO/200 mg/kg, Mean ± SD, read-out: AUC0-24): 1100 µg·h/mL | Cmax ([1]; male, Sprague-Dawley, rat, plasma, po, 200 mg/kg, rat, Male, PO/200 mg/kg, Mean ± SD, read-out: Cmax): 115 µg/mL | Tmax ([1]; male, Sprague-Dawley, rat, plasma, po, 200 mg/kg, rat, Male, PO/200 mg/kg, Mean ± SD): 4 ± 2 h | AUClast/D ([1]; rat PO 20 mg/kg, female, mean): 44231 | AUC—% Extrap—obs ([1]; rat PO 20 mg/kg, female, mean): 9.9% | Cmax ([1]; rat PO 20 mg/kg, female, mean, listed as Free Acid, 20 mg/kg): 78.833 µg/mL | AUC—% Extrap—obs ([1]; rat PO 20 mg/kg, male, mean): 0.61% | AUClast/D ([1]; rat PO 60 mg/kg, female, mean): 23759 | AUC—% Extrap—obs ([1]; rat PO 60 mg/kg, female, mean): 16.7% | AUClast/D ([1]; rat PO 60 mg/kg, male, mean): 7419 | AUC—% Extrap—obs ([1]; rat PO 60 mg/kg, male, mean): 0.477% | AUClast/D ([1]; rat PO 200 mg/kg, female, mean): 14265 | AUC—% Extrap—obs ([1]; rat PO 200 mg/kg, female, mean): 22.1% | AUClast/D ([1]; rat PO 200 mg/kg, male, mean): 5525 | AUC—% Extrap—obs ([1]; rat PO 200 mg/kg, male, mean): 0.704% | Clinical symptoms ([1]; rats, single oral gavage dose): No abnormal clinical symptoms were observed | Systemic clearance ([2]; intravenous administration, all species evaluated): low | bioavailability ([2]; plasma, oral administration, species evaluated): > 30%
